Data taken from patent publication US20240398832A1, “CDK4 AND 6 INHIBITOR IN COMBINATION WITH FULVESTRANT FOR THE TREATMENT OF HORMONE RECEPTOR-POSITIVE, HUMAN EPIDERMAL GROWTH FACTOR RECEPTOR 2-NEGATIVE ADVANCED OR METASTATIC BREAST CANCER IN PATIENTS PREVIOUSLY TREATED WITH A CDK4 AND 6 INHIBITOR” (Eli Lilly and Company, priority 2021, published 2024).

Columns and labels:
[1] = tested on: cell lines resistant to abemaciclib and tamoxifen; assay: Cell proliferation and viability assays (Geminin/Ki67, annexin V, colony formation), sequential treatment; assay type: cell-based; conditions: sequential treatment in combination with ET
Protocol: (§1) Resistant breast cancer cells are prepared by treating breast cancer cell lines with amounts of a CDK4 and 6 inhibitor (either abemaciclib or palbociclib) in combination with 4-OH-tamoxifen (tamoxifen) for 120-144 h. The cells are sorted and screened for resistant cells, defined as geminin positive (GEM+), a marker of S/G2/M cell cycle accumulation. To confirm the resistant phenotype, cell lines are treated with tamoxifen plus the CDK4 and 6 inhibitor used to drive resistance (either abemaciclib or palbociclib). Resistant cancer cells generated by the above method are treated with abemaciclib in combination with an endocrine therapy (ET) comprising either fulvestrant or tamoxifen; or with palbociclib in combination with either fulvestrant or tamoxifen. Cell proliferation and viability are evaluated by Geminin/Ki67, annexin V, and colony formation assays. Mechanisms of resistance and the effects of sequential treatment of the CDK4 and 6 inhibitor in combination with either fulvestrant or tamoxifen are characterized by western blot and RNAseq analysis.

[2] = tested on: abemaciclib-resistant cells; assay: Characterization of effects of sequential treatment (proliferation, pRb signaling, androgen response); assay type: cell-based; conditions: in combination with ET
Protocol: as §1

[3] = tested on: abemaciclib-resistant cells; assay: Western blot analysis after sequential treatment; assay type: cell-based; conditions: in combination with ET
Protocol: as §1

[4] = tested on: early breast cancer at high risk of recurrence; conditions: adjuvant setting; patients with early breast cancer at high risk of recurrence; cited from earlier work
[5] = tested on: HR+, HER2− advanced or metastatic breast cancer; conditions: abemaciclib 150 mg BID in combination with fulvestrant; patients; cited from earlier work
[6] = tested on: Cancer cell lines that are resistant to palbociclib and tamoxifen; assay: Colony formation assay, sequential CDK4 and 6 inhibitor treatment; assay type: cell-based; conditions: sequential treatment in combination with ET (fulvestrant or tamoxifen)
Protocol: as §1

[7] = tested on: Cancer cell lines that are resistant to palbociclib and tamoxifen; assay: Characterization of effects of sequential treatment (proliferation, pRb signaling, androgen response); assay type: cell-based; conditions: sequential treatment in combination with ET
Protocol: as §1

[8] = tested on: palbociclib-resistant cells; assay: Western blot analysis after sequential treatment; assay type: cell-based; conditions: in combination with ET
Protocol: as §1

[9] = tested on: Cancer cell lines that are resistant to palbociclib and tamoxifen; assay: Annexin V assay, sequential CDK4 and 6 inhibitor treatment; assay type: cell-based; conditions: sequential treatment in combination with ET (fulvestrant or tamoxifen)
Protocol: as §1

[10] = tested on: Cancer cell lines that are resistant to palbociclib and tamoxifen; assay: Geminin/Ki67 cell proliferation assay, sequential CDK4 and 6 inhibitor treatment; assay type: cell-based; conditions: sequential treatment in combination with ET (fulvestrant or tamoxifen)
Protocol: as §1

[11] = tested on: HR+, HER2− advanced or metastatic breast cancer; assay type: in vivo, human; conditions: investigation arm: abemaciclib 150 mg PO BID and fulvestrant 500 mg IM; expected
Protocol: As detailed below, a clinical trial is conducted as a Phase 3, global, multicenter, randomized, double-blind, placebo-controlled study in participants with HR+, HER2− advanced or metastatic breast cancer. The study will enroll adults who experienced disease progression on a CDK4 and 6 inhibitor and an aromatase inhibitor (AI) therapy in the first-line setting (initial therapy for advanced or metastatic breast cancer), or recurrence on or after a CDK4 and 6 inhibitor with endocrine therapy (ET) in the adjuvant setting.
The trial will include approximately 350 participants that will be randomly assigned to one of two intervention arms that include an investigational arm A: abemaciclib and fulvestrant and a control arm B: placebo and fulvestrant. […]
The primary endpoint, PFS by investigator assessment, is defined as the time from randomization until the first occurrence of documented disease progression as determined by investigator assessment per RECIST 1.1, or death from any cause in the absence of documented progressive disease. […]

| SMILES | inhibition effects (% GEM+, colony formation ability, Ki67 levels, apoptosis) [1] | effects on proliferation, pRb signaling, or androgen response [2] | effects on FOXMI and cyclin A [3] | distant relapse-free survival (DRFS) [4] | invasive disease-free survival (IDFS) [4] | OS benefit compared to fulvestrant/placebo [5] | PFS benefit compared to fulvestrant/placebo [5] | safety profile [5] | colony formation ability [6] | androgen response [7] | pRb signaling [7] | proliferation [7] | FOXMI, a regulator of senescence and apoptosis [8] | cyclin A, a marker of mitosis [8] | apoptosis [9] | % GEM+ [10] | Ki67 levels [10] | disease progression [11] |
| --- | --- | --- | --- | --- | --- | --- | --- | --- | --- | --- | --- | --- | --- | --- | --- | --- | --- | --- |
| CC(=O)c1c(C)c2cnc(Nc3ccc(N4CCNCC4)cn3)nc2n(C2CCCC2)c1=O [palbociclib, 6-acetyl-8-cyclopentyl-5-methyl-2-{[5-(piperazin-1-yl)pyridine-2-yl]amino}pyrido[2,3,-d]pyrimidin-7 (8H)-one] | do not show similar inhibition effects | do not exhibit similar effects | do not exhibit similar effects |  |  |  |  |  |  |  |  |  |  |  |  |  |  |  |
| CCN1CCN(Cc2ccc(Nc3ncc(F)c(-c4cc(F)c5nc(C)n(C(C)C)c5c4)n3)nc2)CC1 [abemaciclib, [5-(4-ethyl-piperazin-1-ylmethyl)-pyridin-2-yl]-[5-fluoro-4-(7-fluoro-3-isopropyl-2-methyl-3H-benzoimidazol-5-yl)-pyrimidin-2-yl]-amine] |  |  |  | significant improvement | significant improvement | clinically meaningful | clinically meaningful | manageable safety profile | decreased | induction | decreased | decrease | decrease | decrease | increased | decreased | decreased | delay disease progression |
